Measured values from PubChem BioAssay (NCI).
Where “and” joins values, the source holds several entries; their conditions need not be identical. Equal entries are not always repeated.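 Exposure lasted 48 hours, with cells grown in 96-well plates and compounds tested at five concentrations. GI50: concentration for 50% inhibition of growth. TGI is the concentration that stops growth completely.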

What was measured:
Experiment in all cases: NCI tumour cell line growth inhibition, 48 h
XF 498 CNS = tested on: XF 498 CNS
KM20L2 colon = tested on: KM20L2 colon
LXFL 529 NSCLC = tested on: LXFL 529 NSCLC
M19-MEL melanoma = tested on: M19-MEL melanoma
RXF-631 renal = tested on: RXF-631 renal
DMS 273 small cell lung = tested on: DMS 273 small cell lung
DMS 114 small cell lung = tested on: DMS 114 small cell lung
DLD-1 colon = tested on: DLD-1 colon
MDA-N = tested on: MDA-N

Row | Structure (SMILES) | TGI (XF 498 CNS) [µM] | TGI (KM20L2 colon) [µM] | TGI (LXFL 529 NSCLC) [µM] | TGI (M19-MEL melanoma) [µM] | GI50 (XF 498 CNS) [µM] | GI50 (RXF-631 renal) [µM] | TGI (RXF-631 renal) [µM] | GI50 (KM20L2 colon) [µM] | GI50 (DMS 273 small cell lung) [µM] | TGI (DMS 273 small cell lung) [µM] | GI50 (DMS 114 small cell lung) [µM] | TGI (DMS 114 small cell lung) [µM] | GI50 (DLD-1 colon) [µM] | TGI (DLD-1 colon) [µM] | GI50 (M19-MEL melanoma) [µM] | GI50 (MDA-N) [µM] | TGI (MDA-N) | GI50 (LXFL 529 NSCLC) [µM]
1 | COc1cc(/C=C(\C#N)C(=O)c2ccccc2)ccc1O | > 100 | > 100 | > 100 | > 100 |  |  |  |  |  |  |  |  |  |  |  |  |  | 
2 | CN(C)c1ccc([O][Bi]([Cl])[Cl])cc1 | > 100 | > 100 |  | > 100 | 80.6 | 30.7 | > 100 | > 100 | > 100 | > 100 | 87.9 | > 100 | > 100 | > 100 | > 100 |  |  | 
3 | COC(=O)C(=O)OC1(C(C)=O)CC2(c3ccccc3)OC1(c1ccccc1)c1ccccc12 (stereo unspecified) | 30.5 | 30.7 | 49.2 | 31.1 |  |  | > 100 |  |  | 30 |  | 32 |  | 36.4 |  |  |  | 
4 | CCOC(=O)c1[nH]c(Br)c(-c2ccc(Br)cc2)c1Br |  |  |  |  |  |  |  |  |  |  |  |  |  |  |  | 0.0979 | 0.505 µM and 0.273 µM | 
5 | Oc1ccccc1C=NCc1ccco1 | > 100 | > 100 | > 100 | > 100 |  |  | > 100 |  |  |  |  | > 100 |  | > 100 |  |  |  | 
6 | CC(=O)[CH-]C(=O)c1ccccc1.CC(=O)[CH-]C(=O)c1ccccc1.CC1(C)C2CCC1(C)C([O-])C2.CC1(C)C2CCC1(C)C([O-])C2.[Ti+4] |  | > 100 | > 100 | > 100 |  |  |  | 60 |  |  |  |  | 29.2 | > 100 | 24.4 |  |  | 23.7
7 | BrC1=CC=C2NC=CC3=CC=NC1C32 (stereo unspecified) | 48 | > 100 | > 70 | 30.1 |  |  | > 100 |  |  | > 92.5 |  | 58.1 |  | > 65.2 |  |  |  | 
8 | Cc1ccccc1C(=O)c1ccccc1O | > 100 | > 100 | > 100 | > 100 |  |  | > 100 |  |  | > 100 |  | > 100 |  | > 100 |  |  |  | 
9 | O=C(CO)CC(=O)C(=O)Nc1ccccc1 |  | > 100 | > 100 | > 100 |  |  | > 100 |  |  | > 100 |  | > 100 |  | > 100 |  |  |  | 
10 | Cn1c(=O)nc2n(-c3cccc(Br)c3)c3ccccc3nc-2c1=O | 15.8 | 6.97 | 19.5 | 3.03 |  |  |  |  |  | 14.7 |  | 4.45 |  | 29.1 |  |  |  | 
11 | N#CC(C(=O)/C(=N/N)C(C#N)c1ccccc1)c1ccccc1 (stereo unspecified) | > 100 |  | > 100 | > 100 |  |  | > 100 |  |  |  |  | > 100 |  | > 100 |  |  |  | 
12 | O=NNc1ccc(S(=O)(=O)c2ccccc2)cn1 |  |  |  |  |  |  |  |  |  |  |  |  |  |  |  |  | > 100 µM | 
13 | Clc1cc(Cc2cc(Cl)c(Cl)c3c2OCOC3)c2c(c1Cl)COCO2 |  | > 100 | > 100 | > 100 |  |  |  |  |  | > 100 |  | > 100 |  | > 100 |  |  |  | 
14 | O=C1NC(=O)C2C(=O)NC(=O)C1C2(c1ccccc1)c1cc[nH]c1 (stereo unspecified) | > 100 |  | > 100 | > 100 |  |  |  |  |  | > 100 |  | > 100 |  | > 100 |  |  |  | 
15 | CC(=O)[CH-]C(=O)c1ccccc1.CC(=O)[CH-]C(=O)c1ccccc1.[Eu+3].[OH-].[OH3+] |  | > 100 | > 100 | > 100 |  |  |  | > 100 |  |  |  |  |  |  | > 100 |  |  | > 100
16 | N#Cc1c(NN)nc(NN)c(C#N)c1-c1ccccc1 | > 100 | > 100 | > 100 | > 100 |  |  | > 100 |  |  | > 100 |  | > 100 |  | > 100 |  |  |  | 
